Test results reported in patent US6586435B2, “Benzimidazolone derivatives displaying affinity at the serotonin and dopamine receptors” (Boehringer Ingelheim Pharma KG, priority 2000, dated 2003).
Where two headings read alike, the source gives them in different places.

Legend:
D4 human receptors = target: T1, D4 human receptors (Homo sapiens, UniProt P21917); assay: D4 radioligand receptor binding assay ([3H] YM-09151-2); conditions: compound 10^−7 M, singlicate; membranes from CHO cells; [3H] YM-09151-2 0.15-0.25 nM
T1 construct: expressed in transfected cells; host or cells: CHO cells
T1 sequence (P21917 1-419): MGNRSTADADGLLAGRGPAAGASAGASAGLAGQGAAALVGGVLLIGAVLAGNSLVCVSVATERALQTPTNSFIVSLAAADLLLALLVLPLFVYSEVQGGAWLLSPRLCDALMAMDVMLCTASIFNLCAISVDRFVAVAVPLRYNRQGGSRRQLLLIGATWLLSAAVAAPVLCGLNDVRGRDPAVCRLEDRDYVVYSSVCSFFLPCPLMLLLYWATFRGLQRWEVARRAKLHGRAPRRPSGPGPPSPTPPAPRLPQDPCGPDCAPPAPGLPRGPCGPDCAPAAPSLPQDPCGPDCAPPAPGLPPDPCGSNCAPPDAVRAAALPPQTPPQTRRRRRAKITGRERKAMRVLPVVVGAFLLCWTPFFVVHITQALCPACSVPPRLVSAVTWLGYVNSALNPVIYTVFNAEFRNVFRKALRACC
Description: D4 Radioligand Receptor Binding Assay
Membranes from CHO cells, expressing D4 human receptors were suspended in incubation buffer.
Binding assays were performed in MultiProbe 204 pipetting system (Packard), according to a predetermined mapping, consistent with the software Screen. The compounds were tested in singlicate at one concentration (10^−7 M) in a total volume of 1000 μl (980 μl of diluted membranes, 10 μl DMSO or unlabelled ligand, and 10 μl of [^3H] YM-09151-2 (0.15-0.25 nM). After incubation for 120 minutes at 27° C., the reaction was stopped by rapid filtration through Tomtec Cell Harvester (48 wells) using Filtermat B (presoaked in 0.1% PEI) filters. Filters were washed with ice-cold 50 mM Tris-HCl (pH 7.4) buffer (9×700 μl), dried, covered with MeltiLex B/HS (Wallac) scintillator sheets and heated in oven at 80° C.-90° C. for about 10 minutes, transferred into plastic sample bags (Wallac), sealed and put into 1024 Beta Plate scintillation counter (Wallac). Non-specific binding was determined in the presence of clozapine dissolved in DMSO to a final concentration of 10^−5 M.
(§1) The specific radioligand binding to the receptor was defined by the difference between total binding and non-specific binding, determined in the presence of an excess of unlabelled ligand. Results were expressed as percentage of control specific binding obtained in the presence of the compounds.

[1] = target: T2, 5-HT1A receptor (CHO/5-HT1A cells) (Homo sapiens, UniProt P08908); assay: 5-HT1A functional assay (cAMP); format: cell-based; conditions: 10 μM compound, % inhibition of the cAMP accumulation induced by 10 μM FSK, read-out: 5-HT1A cAMP % Inhibition (agonist activity)
T2 construct: expressed in transfected cells; host or cells: CHO/5-HT1A cells
T2 sequence (P08908 1-422): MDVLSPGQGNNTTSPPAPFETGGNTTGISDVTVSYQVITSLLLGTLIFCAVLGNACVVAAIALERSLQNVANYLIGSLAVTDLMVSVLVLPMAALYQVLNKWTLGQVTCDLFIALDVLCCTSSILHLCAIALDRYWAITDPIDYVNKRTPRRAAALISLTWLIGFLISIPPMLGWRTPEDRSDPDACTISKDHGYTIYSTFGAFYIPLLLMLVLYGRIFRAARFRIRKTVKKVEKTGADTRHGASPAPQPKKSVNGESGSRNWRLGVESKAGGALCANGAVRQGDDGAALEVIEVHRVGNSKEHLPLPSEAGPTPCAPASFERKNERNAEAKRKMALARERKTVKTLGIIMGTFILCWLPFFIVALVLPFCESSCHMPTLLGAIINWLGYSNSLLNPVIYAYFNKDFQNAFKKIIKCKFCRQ
Description: 5-HT1A Functional Assay (cAMP)
CHO/5-HT1A cells were random seeded at a density of about 200,000/well in 24 well plates the day prior to the experiment. On the day of the experiment, cells were pretreated for 15 minutes at 37° C. with 500 μM isobutylmethylxantine (IBMX) dissolved in culture medium without serum. Wells were then divided in different groups in duplicate as follows: control, 10 μM FSK, 10 μM FSK+1 μM 5-HT as positive standard and 10 μM FSK+10 μM of the different compound under evaluation. Sample solutions were added and incubated for additional 15 minutes at 37° C. After incubation, medium was aspirated and the reaction stopped by adding 200 μl of lysis buffer. Plates were shaken for 5 minutes, then the lysate was removed and samples were stored at 4° C. until the day of the assay. For the cAMP evaluation, samples were properly diluted and the cAMP content was measured by an enzyme immunoassay system.
Results are expressed as % inhibition of the cAMP accumulation induced by 10 μM FSK.

5-HT1A human receptors = target: T3, 5-HT1A human receptors (Homo sapiens, UniProt P08908); assay: 5-HT1A radioligand receptor binding assay ([3H]-8-OH-DPAT); conditions: for inhibition at 0.1 µM: compound 10^−7 M, singlicate, [3H]-8-OH-DPAT 0.6-0.7 nM
T3 construct: expressed in transfected cells; host or cells: CHO cells
T3 sequence (P08908 1-422): T2 sequence (P08908 1-422)
Description: 5-HT1A, Radioligand Receptor Binding Assay
Membranes from CHO cells, expressing 5-HT1A human receptors were suspended in incubation buffer.
Binding assays were performed in MultiProbe 204 pipetting system (Packard), according to a predetermined mapping, consistent with the software Screen. The compounds were tested in singlicate at one concentration (10^−7 M) in a total volume of 1000 μl. 980 μl of diluted membranes, 10 μl DMSO or unlabelled ligand, and 10 μl of [^3H]-8-OH-DPAT (0.6-0.7 nM) were incubated for 60 minutes at 27° C. The reaction was stopped by rapid filtration through Tomtec Cell Harvester (48 wells) using Filtermat B (presoaked in 0.1% PEI) filters. Filters were washed with ice-cold 50 mM Tris-HCl (pH 7.4) buffer (9×700 μl), dried, covered with MeltiLex B/HS scintillator sheets (Wallac) and heated at 80° C. to 90° C. for about 10 minutes, transferred into plastic sample bags (Wallac), sealed and put into 1024 Beta Plate scintillation counter (Wallac). Non-specific binding was determined in the presence of 5-HT (10^−5 M).
as §1, with “compounds. The affinity values (IC50) for the compounds were obtained by a nonlinear least squares regression analysis on the basis of a one binding site model.” for “compounds.”

[2] = membranes from CHO cells, [3H]-8-OH-DPAT, one binding site model, read-out: 5-HT1A Receptor Binding IC50

Row | Compound | inhibition at 0.1 µM (D4 human receptors) | inhibition at 10 µM [1] | inhibition at 0.1 µM (5-HT1A human receptors; membranes from CHO cells) | IC50 (5-HT1A human receptors; [2]) | IC50 (5-HT1A human receptors)
1 | O=c1[nH]c2ccccc2n1C/C=C/CN1CCN(c2cccc(C(F)(F)F)c2)CC1 [Compound 9] | 54% | 80% | 96% | – | 4.8 nM
2 | O=c1[nH]c2ccccc2n1C/C=C\CN1CCN(c2cccc(C(F)(F)F)c2)CC1 [Compound 26] | 49% | 68% | 94% | – | 6.6 nM
3 | O=c1[nH]c2ccccc2n1C/C=C\CN1CC=C(c2ccccc2)CC1 [Compound 27] | 70% | 44% | 87% | – | 6.4 nM
4 | Cn1c(=O)n(C/C=C\CN2CC=C(c3ccccc3)CC2)c2ccccc21 [Compound 44] | 69% | 47% | 94% | – | 2.5 nM
5 | CCCn1c(=O)n(C/C=C\CN2CCN(c3ccccc3)CC2)c2ccccc21 [Compound 52] | 47% | 54% | 90% | 16 nM | –
6 | CCCn1c(=O)n(C/C=C\CN2CC=C(c3ccccc3)CC2)c2ccccc21 [Compound 61] | 44% | 26% | 90% | – | 5.2 nM
7 | O=c1n(C/C=C\CN2CCN(c3ccccc3)CC2)c2ccccc2n1CC1CCCCC1 [Compound 69] | 41% | 52% | 90% | 13 nM | –
8 | O=c1n(C/C=C\CN2CC=C(c3ccccc3)CC2)c2ccccc2n1CC1CCCCC1 [Compound 78] | 40% | 27% | 86% | – | 18 nM
9 | Cn1c(=O)n(C/C=C/CN2CCc3c([nH]c4ccccc34)C2)c2ccccc21 [Compound 92] | 54% | 46% | 88% | 15 nM | –
10 | Cn1c(=O)n(C/C=C/CN2CC=C(c3ccccc3)CC2)c2ccccc21 [Compound 95] | 46% | 22% | 92% | – | 7.3 nM
11 | CCCn1c(=O)n(C/C=C/CN2CCN(c3ccccn3)CC2)c2ccccc21 [Compound 106] | 37% | 68% | 92% | 7.4 nM | –
12 | CCCn1c(=O)n(C/C=C/CN2CC=C(c3ccccc3)CC2)c2ccccc21 [Compound 112] | 43% | 9% | 87% | – | 13 nM
13 | O=c1n(C/C=C/CN2CCN(c3ccccc3)CC2)c2ccccc2n1CC1CCCCC1 [Compound 120] | 49% | 17% | 98% | 6 nM | –
14 | O=c1n(C/C=C/CN2CCN(c3ccccn3)CC2)c2ccccc2n1CC1CCCCC1 [Compound 123] | 57% | 63% | 98% | 1.2 nM | –
15 | O=c1n(C/C=C/CN2CCN(c3cccc(Cl)c3)CC2)c2ccccc2n1CC1CCCCC1 [Compound 124] | 49% | 47% | 99% | 11 nM | –
16 | O=c1n(C/C=C/CN2CCc3c([nH]c4ccccc34)C2)c2ccccc2n1CC1CCCCC1 [Compound 126] | – | 44% | – | 15 nM | –
17 | O=c1n(C/C=C/CN2CC=C(c3ccccc3)CC2)c2ccccc2n1CC1CCCCC1 [Compound 129] | – | 13% | – | – | 5.5 nM

Second part, led by results:

Row | inhibition at 0.1 µM (D4 human receptors) | inhibition at 10 µM [1] | inhibition at 0.1 µM (5-HT1A human receptors; membranes from CHO cells) | IC50 (5-HT1A human receptors; [2]) | Compound | IC50 (5-HT1A human receptors)
18 | 59% | 66% | 88% | 15 nM | Cn1c(=O)n(C/C=C\CN2CCN(c3ccccc3)CC2)c2ccccc21 [Compound 35] | –
19 | 72% | 63% | 91% | 9.8 nM | Cn1c(=O)n(C/C=C\CN2CCN(c3cccc(Cl)c3)CC2)c2ccccc21 [Compound 39] | –
20 | 54% | 73% | 94% | 1.2 nM | Cn1c(=O)n(C/C=C\CN2CCN(c3cccc(C(F)(F)F)c3)CC2)c2ccccc21 [Compound 43] | –
21 | 65% | 65% | 92% | 11 nM | CCCn1c(=O)n(C/C=C\CN2CCN(c3cccc(Cl)c3)CC2)c2ccccc21 [Compound 56] | –
22 | 30% | 71% | 88% | 1.8 nM | CCCn1c(=O)n(C/C=C\CN2CCN(c3cccc(C(F)(F)F)c3)CC2)c2ccccc21 [Compound 60] | –
23 | 34% | 66% | 92% | 10 nM | Cn1c(=O)n(C/C=C/CN2CCN(c3ccccn3)CC2)c2ccccc21 [Compound 89] | –
24 | 79% | 62% | 98% | 4.6 nM | Cn1c(=O)n(C/C=C/CN2CCN(c3cccc(Cl)c3)CC2)c2ccccc21 [Compound 90] | –
25 | – | 75% | – | 0.96 nM | Cn1c(=O)n(C/C=C/CN2CCN(c3cccc(C(F)(F)F)c3)CC2)c2ccccc21 [Compound 94] | –
26 | 69% | 54% | 96% | 5.3 nM | CCCn1c(=O)n(C/C=C/CN2CCN(c3cccc(Cl)c3)CC2)c2ccccc21 [Compound 107] | –
27 | 32% | 68% | 94% | 4.4 nM | CCCn1c(=O)n(C/C=C/CN2CCN(c3cccc(C(F)(F)F)c3)CC2)c2ccccc21 [Compound 111] | –
28 | – | 61% | – | 8.4 nM | O=c1n(C/C=C/CN2CCN(c3cccc(C(F)(F)F)c3)CC2)c2ccccc2n1CC1CCCCC1 [Compound 128] | –
